Test results: EP4818189A1, “NITROGEN-CONTAINING HETEROCYCLIC COMPOUND, AND PREPARATION METHOD AND USE THEREFOR” (Chengdu Di'ao Pharmaceutical Group Co., Ltd., priority 2023, dated 2025)
Where a SMILES comes first, the peptide text is derived from it. [ ]: non-standard residue; d: D form. The star is where a group is joined. pGlu = O=C1CC[C@@H](C(=O)O)N1; Aze = O=C(O)[C@@H]1CCN1; dAze = O=C(O)[C@H]1CCN1; Bz = O=C(c1ccccc1)*

Tests used:
CUMS model mice [1] = assay: Tail suspension test in CUMS model mice, intravenous administration; format: in vivo, C57/B6 mice; conditions: single i.v. dose 100 mg/kg, test 2 hours later (FIG. 4)
Description: (§1) 6-8-week-old C57/B6 mice (purchased from: Jinan Pengyue Laboratory Animal Breeding Co., Ltd.) were used to establish a 28-day chronic unpredictable mild stress (CUMS) animal model, and an experimental procedure referred to document description^[1,2]. After one week of acclimatization, seven experiments, including food and water deprivation, foot shock, wet bedding, cage tilting, restraint stress, shaker stress, and olfactory stimulation, were randomly applied to the animals within one week to achieve unpredictability, and the stimulation was continued for 4 consecutive weeks. The successful establishment of the model was verified by an open field test (OFT)^[3], and then pharmacodynamic evaluation was carried out. The animals were divided into a blank control group (Control), a model group (Model), a vehicle control group (Vehicle), a fluoxetine control group and a compound group in the experiment. The test compound was intravenously (i.v.) administered once at a dose of 100 mg/kg, a tail suspension test (TST) and a forced swimming test (FST)^[4,5] were carried out 2 hours later to evaluate the depression of the mice, and prolonged immobility time in the TST and the FST indicated behavioral despair of the mice. After summary statistics of data, SPSS data statistics software was used for analysis, and Graph Pad software was used for graph generation based on SPSS analysis results.

CUMS model mice [2] = assay: Forced swimming test in CUMS model mice, intravenous administration; format: in vivo, C57/B6 mice; conditions: single i.v. dose 100 mg/kg, test 2 hours later (FIG. 3)
Description: as §1

[3] = Mouse pharmacokinetic detection; format: in vivo; conditions: CD1 mice
Experimental: The detection was carried out in 6-8-week-old CD1 mice (purchased from: Speifu (Beijing) Biotechnology Co., Ltd.). […] The concentration of the compound in a plasma sample was analyzed by LC-MS/MS. Pharmacokinetic calculation was carried out by using WinNonlin (Phoenix™, Version 8.3) or other similar software. The following pharmacokinetic parameters were calculated based on plasma concentration and time data: Oral administration: AUClast, bioavailability (F). Statistical calculation was carried out on the above parameter data. Table 3 Pharmacokinetic data of some compounds administered orally in mice

[4] = Plasma stability determination; format: in vitro ADME; conditions: mouse
Experimental: Mouse plasma (purchased from IPHASE, Batch No. 23B007) was thawed in a 37°C water bath, centrifuged to remove an upper clot, and the pH value was recorded as 7-8. An appropriate volume of stock solution of test compound in acetonitrile (at a concentration of 10 mM) was diluted with acetonitrile to 1 mM, so as to serve as a test drug solution. An appropriate volume of test drug solution was added to a corresponding volume of plasma and mixed uniformly, such that the concentration of the test compound in the incubation system was 5 µM, and the content of the organic solvent acetonitrile was 0.5%. 50 µL of mixed plasma was transferred into a 96-well plate (N=2), incubated at 37°C in a water bath for a designated time, and then added with 300 µL of internal standard-containing methanol solution to terminate the reaction. The reaction mixture was vortexed and centrifuged, and the supernatant was subjected to LC-MS/MS analysis. Propantheline and ZZL-7 were used as positive controls, and processed and tested under the same conditions as the test compound. A curve was plotted with the remaining percentage of the compound against incubation time to obtain a k value, and the half-life of each compound was calculated.

[5] = Rat pharmacokinetic detection; format: in vivo; conditions: plasma, male SD rats; for AUC(0-t): oral gavage 15 mg/kg; for bioavailability: oral gavage 15 mg/kg vs intravenous 10 mg/kg
Experimental: The detection was carried out in 6-8-week-old male SD rats (purchased from:SPF (Beijing) Biotechnology Co., Ltd.). A test compound was dissolved in a solution containing 10% DMSO, 15% Solutol HS and 75% (aqueous solution of 10% hydroxypropyl-β-cyclodextrin), and administered via intravenous injection (10 mg/kg) or oral gavage (15 mg/kg). A concentration of the compound in a plasma sample was analyzed by LC-MS/MS. Pharmacokinetic calculation was carried out by using WinNonlin (Phoenix™, Version 8.3). The following pharmacokinetic parameters were calculated based on plasma concentration and time data: Oral administration: AUClast, bioavailability (F). Statistical calculation was carried out on the above parameter data. Table 4 Pharmacokinetic data of some compounds administered orally in rats

MDR1-MDCK II cells = assay: Permeability detection in MDR1-MDCK II cell monolayer; format: in vitro ADME; conditions: permeability rank
Experimental: (§2) MDR1-MDCK II cells (imported from the Netherlands Cancer Institute) were seeded in a 96-well cell plate at a density of 3.33×10^5 cells/mL, and cultured in a carbon dioxide incubator for 4-7 days to form a cell monolayer. A Hank's balanced salt solution (HBSS, pH 7.40 ± 0.05) containing 10.0 mM 4-(2-hydroxyethyl)-1-piperazineethanesulfonic acid (HEPES) was used as a transport buffer. A DMSO stock solution of compound was diluted to 2 µM (DMSO < 1.0%) with the transport buffer, and added to the basolateral (B) side and apical (A) side respectively (N=2). The bidirectional (A-B and B-A) incubation concentration of Digoxin, a P-gp substrate, was 10 µM, and the unidirectional (A-B) incubateion concentrations of Nadolol, a low-permeability control, and Metoprolol, a high-permeability control, were 2 µM. The cell plate was incubated in a 5% CO2 cell incubator at 37°C and saturated humidity for 2.5 hours, then final samples from a receiver side and a donor side were collected, added with the transport buffer and a precipitant at an appropriate ratio, and analyzed by LC-MS/MS, and an apparent permeability coefficient, an efflux ratio and a solution recovery were calculated.
(§3) After the transport experiment was completed, an integrity of the MDR1-MDCK II cell layer was detected by a lucifer yellow detection experiment. Residual solution in apical and basolateral wells was removed, and 75 µL of transport buffer containing 100 µM lucifer yellow was added to the apical wells and 250 µL of transport buffer was added to the basolateral wells respectively. The cell plate was incubated in a 5% CO2 cell incubator at 37 °C and saturated humidity for 30 minutes, then 20 µL of sample was taken from the apical side and mixed with 60 µL of transport buffer and 80 µL of sample was taken from the basolateral side. A relative fluorescence intensity was detected by a microplate reader at excitation/emission wavelengths of 425/528 nm, and the permeability of Lucifer Yellow was calculated.
(§4) The apparent permeability coefficient (Papp), efflux ratio (ER) and %solution recovery were respectively calculated by following formulas: Papp = (VR)/(Area × Time) × ([drug]receiver)/([drug]initial,donor) = (VR)/(Area × Time) × (CR)/(C0) [formula] Efflux Ratio = (Papp (B−A))/(Papp (A−B)) [formula] %Solution Recovery = (CR × VR + CD × VD)/(C0 × VD) × 100 [formula]
(§5) VR was the volume of solution in the receiver side (0.075 mL for the apical side and 0.25 mL for the basolateral side respectively), VD was the volume of solution in the donor side (0.075 mL for the apical side and 0.25 mL for the basolateral side respectively), CR was the peak area ratio of compound in the receiver side, CD was the peak area ratio of compound in the donor side, C0 was the initial peak area ratio of compound in the donor side, Area was the surface area (0.143 cm^2) of the cell monolayer, and Time was incubation time of 9000 seconds (150 minutes). Papp(B-A) and Papp(A-B) respectively referred to the apparent permeability coefficient from the basolateral side to the apical side and the apparent permeability coefficient from the apical side to the basolateral side.
(§6) The permeability of Lucifer Yellow(%Lucifer Yellow) was calculated by the following formula: %Lucifer Yellow = (VBasolateral × RFUBasolateral)/(VApical × RFUApical + VBasolateral × RFUBasolateral) × 100 [formula]
(§7) RFUApical and RFUBasolareral respectively referred to relative fluorescence intensities of lucifer yellow in the apical side and the basolateral side. VApical and VBasolateral respectively referred to loading volumes (0.075 mL and 0.25 mL respectively) in the apical side and the basolateral side. Table 2 Permeability data of some compounds

[6] = as above; format: in vitro ADME; conditions: dog, pH 7.4, MDR1-MDCK II cells, 2 µM, 2.5 hours; for Papp A→B at 2.5 h, 2 µM: apical to basolateral; for Papp B→A at 2.5 h, 2 µM: basolateral to apical
Experimental: as §2, §3, §4, §5, §6, §7

[7] = plasma, oral gavage 10 mg/kg vs intravenous 10 mg/kg
[8] = plasma, ZZL-7 administered at 100 mg/kg via PO

Row | Structure (SMILES) | AUC(0-t) ([3]; plasma, oral gavage 10 mg/kg) [ng·h/mL] | bioavailability [3, 7] [%] | half-life at 5 µM [4] [h] | also measured
1 | COC(=O)[C@@H](NC(=O)c1cnc(C)[nH]1)C(C)C [A-1-1] | 629 | 35.3 | – | immobility time in the tail suspension test (CUMS model mice [1]): rapidly reverse the prolonged immobility time; immobility time in the forced swimming test (CUMS model mice [2]): rapidly reverse the prolonged immobility time
2 | COC(=O)[C@@H](NC(=O)C1CCN1C(=O)C1CC1)C(C)C (stereo partly drawn) [A-2-2] | 405 | 21.5 | – | –
3 | [2H]C([2H])([2H])OC(=O)[C@@H](NC(=O)C1CCN1C(C)=O)C(C)C (stereo partly drawn) [A-2-4] | 3770 | 80.2 | – | –
4 | COC(=O)[C@@H](NC(=O)[C@@H]1CCN1C(C)=O)C(C)C [A-2-6] (Ac-[Aze]-Val-OMe) | 3340 | 148 | – | –
5 | COC(=O)[C@@H](NC(=O)[C@H]1CCN1C(C)=O)C(C)C [A-2-7] (Ac-[dAze]-Val-OMe) | 3990 | 83.9 | – | –
6 | [2H]C([2H])([2H])C(=O)N1CC[C@H]1C(=O)N[C@H](C(=O)OC)C(C)C [A-2-8] | 3310 | 88.5 | – | –
7 | [2H]C([2H])([2H])C(=O)N1CC[C@@H]1C(=O)N[C@H](C(=O)OC)C(C)C [A-2-9] | 5250 | 84.7 | – | –
8 | COC(=O)[C@@H](NC(=O)[C@@H]1CCN1C(=O)C1CC1)C(C)C [A-2-21] | – | – | > 4.82 | –
9 | COC(=O)[C@@H](NC(=O)[C@H]1CCN1C(=O)c1ccccc1)C(C)C [A-2-22] (Bz-[dAze]-Val-OMe) | – | – | > 4.82 | –
10 | COC(=O)[C@@H](NC(=O)[C@@H]1CCN1C(=O)c1ccccc1)C(C)C [A-2-23] (Bz-[Aze]-Val-OMe) | – | – | > 4.82 | –
11 | COC(=O)[C@@H](NC(=O)[C@H]1CCN1C(=O)c1ccc(C(F)(F)F)cc1)C(C)C [A-2-24] | – | – | > 4.82 | –
12 | COC(=O)[C@@H](NC(=O)[C@@H]1CCN1C(=O)c1ccc(C(F)(F)F)cc1)C(C)C [A-2-25] | – | – | 3.24 | –
13 | COC(=O)[C@@H](NC(=O)[C@H]1CCN1C(=O)c1ccc(F)cc1)C(C)C [A-2-26] | – | – | 3.83 | –
14 | COC(=O)[C@@H](NC(=O)[C@@H]1CCN1C(=O)c1ccc(F)cc1)C(C)C [A-2-27] | – | – | 4.75 | –
15 | COC(=O)[C@@H](NC(=O)[C@@H]1CCN1C(=O)c1ccc(Cl)cc1)C(C)C [A-2-29] | – | – | 3.78 | –
16 | COC(=O)[C@@H](NC(=O)[C@@H]1CCN1C(=O)c1ccco1)C(C)C [A-2-31] | – | – | > 4.82 | –
17 | COC(=O)[C@@H](NC(=O)[C@@H]1CCN1C(=O)c1cccs1)C(C)C [A-2-33] | – | – | > 4.82 | –
18 | CC(=O)N1CCC1C(=O)N[C@H](c1ncc[nH]1)C(C)C (stereo partly drawn) [B-2-1] | 1660 | 44.9 | – | –
19 | [2H]C([2H])([2H])C(=O)N1CC[C@H]1C(=O)N[C@H](c1ncco1)C(C)C [B-2-2] | – | – | – | AUC(0-t) ([3]; in vivo, oral gavage 10 mg/kg): 6950 ng·h/mL; bioavailability ([3]; in vivo, oral gavage 10 mg/kg vs intravenous 10 mg/kg): 153%
20 | CC(=O)N1CC[C@@H]1C(=O)N[C@@H](c1ccccn1)C(C)C [B-2-8] | 2550 | 72.5 | > 4.82 | –
21 | COc1ccc(C(NC(=O)[C@H]2CCN2C(C)=O)C(C)C)cc1 (stereo partly drawn) [B-2-24] | – | – | > 4.82 | –
22 | CC(=O)N1CC[C@@H]1C(=O)NC(c1cc2ccccc2[nH]1)C(C)C (stereo partly drawn) [B-2-33] | 3360 | 68.3 | > 4.82 | –
23 | [2H]C([2H])([2H])C(=O)N1CC[C@H]1C(=O)N[C@@H](c1ncco1)C(C)C [B-2-42] | – | – | > 4.82 | –
24 | CC(C)C[C@H](NC(=O)[C@@H]1CCC(=O)N1)C(=O)O [D4-pEL, reference compound] ([pGlu]-Leu-OH) | 555 | 7.7 | – | AUC(0-t) [5]: 98.6 ng·h/mL; bioavailability [5]: 1.04%; Rank Papp (MDR1-MDCK II cells): Low; Papp A→B at 2.5 h, 2 µM [6]: < 0.216 ×10⁻⁶ cm/s; Papp B→A at 2.5 h, 2 µM [6]: 0.302 ×10⁻⁶ cm/s
25 | C[C@H](NC(=O)[C@@H]1CCCN1)C(=O)O [D5-PA, reference compound] (H-Pro-Ala-OH) | 38 | 3.8 | 0.877 | AUC(0-t) [5]: 11.5 ng·h/mL; bioavailability [5]: 0.71%; Rank Papp (MDR1-MDCK II cells): Low; Papp A→B at 2.5 h, 2 µM [6]: 0.15 ×10⁻⁶ cm/s; Papp B→A at 2.5 h, 2 µM [6]: 0.3 ×10⁻⁶ cm/s
26 | CC(C)[N+](C)(CCOC(=O)C1c2ccccc2Oc2ccccc21)C(C)C [Propantheline, reference compound] | – | – | 0.417 | –
27 | COC(=O)[C@@H](NC(=O)[C@H](C)NC(C)=O)C(C)C [ZZL-7, acetyl-L-alanyl-L-valine methyl ester, reference compound] (Ac-Ala-Val-OMe) | – | – | 0.421 | AUC(0-t) [3, 8]: 138 ng·h/mL; bioavailability [3, 8]: 7.5%
